US20250205195A1, “BENZYLOXY-BENZYLAMINYL AMINO ACID DERIVATIVE FOR ADJUSTING TSLP/TSLPR SIGNAL TRANSMISSION” (AMTIXBIO CO., LTD., priority 2021, published 2025)

How the values were obtained:
[1] = system: DNCB-induced atopic dermatitis mice; test: DNCB-induced atopic dermatitis mouse model; format: in vivo, ICR mice; details: vs DNCB-treated group
Procedure: ICR mice (Orient Bio Inc., male, 4 weeks old) were used, with four mice per group. The mice were acclimatized for one week under controlled conditions (23±2° C., humidity 55±10%, 12-hour light/dark cycle, animal facility at Sungkyunkwan University) and were shaved using clippers and depilatory cream before drug treatment. Following the conventional method, 1% DNCB (2,4-dinitrochlorobenzene, Sigma-Aldrich Co., St. Louis, USA) (200 l) was applied to the dorsal area of the mice every 2 days, four times a week for one week. Subsequently, 0.5% DNCB (200 l) was applied again at 2-day intervals, eight times, to induce atopic dermatitis (Ara, J., Mol Cell Toxicol 2019). One week after DNCB treatment, signs of lesions were confirmed in all mice. Then, the mice were topically administered with the compound 27 of the present invention, dissolved in sterile water at a concentration of 1% (w/v), starting from the point of 0.5% DNCB application, once daily for two weeks. The experimental animals were supplied with powdered feed (Purina, Switzerland), and water and feed were freely available throughout the experimental period. Symptoms associated with atopic dermatitis, such as erythema, edema, scaling, crusting, lichenification, inflammation, bleeding and skin dryness, were observed and recorded according to the Scoring Atopic Dermatitis (SCORAD) index in Table 2.
Using the Mosquito Blood Collection System, blood was drawn from the retro-orbital plexus, and serum was separated. Skin tissue proteins were extracted using a homogenizer in 0.2% PBS (phosphate buffer saline). To measure the concentration of IgE, an IgE ELISA kit (Shibayagi, Japan) was used following the manufacturer's instructions, and analysis was performed using an ELISA reader. The concentrations of TNF-α, IL-4, CCL22/MDC, MMP-12, and S100A9 were measured using Luminex® Assays (R&D Systems, USA).
Skin tissues from the mouse dorsal area were separated and fixed in 10% formalin (10% Neutral Buffered Formalin, Kang Dong Trading, South Korea) for 72 hours. The fixed tissues were washed with water for about 1 hour and then processed into paraffin blocks. The paraffin blocks were sectioned into 8 m slices using a microtome, followed by staining with Harris's hematoxylin solution. Subsequently, the sections were treated with 1% HCl-alcohol, neutralized with 0.5% ammonia solution, and stained with Eosin solution. Next, dehydration was performed using alcohol and xylene, and the sections were mounted on slides using Canada balsam. FIGS. 7 (a) and (b) represent the results.
To determine the concentrations of IgE and TSLP in mouse serum, IgE ELISA kit (Shibayagi, JP) and TSLP ELISA kit (R&D systems, USA) were used following the manufacturer's instructions. As shown in FIGS. 8 (a) and (b), the serum concentrations of IgE and TSLP increased in the DNCB-treated group.
Proteins were extracted from skin tissues of atopic dermatitis mice on the dorsal area, and the levels of TNF-α, IL-1β, CCL22/MDC, IL-4, MMP-12, and S100A9 were measured using Luminex® Assays (R&D systems, USA).

[2] = system: HDM-induced atopic dermatitis mice; test: HDM (Df cream) atopic dermatitis mouse model, skin-specific memory T cell study; format: in vivo, Nc/Nga mice
Description: Nc/Nga mice (purchased from Central Laboratory Animal, male, 6 weeks old) were used, with 2 mice per group. The experimental animals were allowed to freely access to food and water. Mice were shaved using clippers and depilatory cream before the application of Df cream. Df cream (dermatophagoides farina cream) (Biostir AD, Biostir Incorporation) was applied to the dorsal area of the mice 3 times a week for 4 weeks to induce atopic dermatitis. After confirming lesions induced in all mice, compound 27 of the present invention was applied topically to the skin three times a week for three weeks starting four weeks after the Df cream treatment. In contrast to other examples, this example excluded the simultaneous application of the test drug (compound 27 of the present invention) and the atopic dermatitis-inducing agent during the induction period. The compound of the present invention (8 g/mL and […]) was applied to the skin in a volume of 100 μL. As a positive control, 0.1% dexamethasone was topically applied to the mouse skin for comparison.
Erythema, hemorrhage, wounds, dryness, swelling, and shedding in mice were observed visually and compared using the SCORAD score. […] FIG. 12 graphically represents the changes in the atopic dermatitis mouse model's skin scores due to the treatment with each test substance (Wilcoxon-signed rank test; P<0.05 with statistically significant three mice were examined from each group).
A mouse IgE ELISA Kit (BioLegend, San Diego, CA, USA) and a mouse DF-specific IgE ELISA Kit (BioLegend, San Diego, CA, USA) were used according to the manufacturer's instructions to measure IgE in mouse serum and mouse DF-specific IgE. Changes in the levels of total IgE and DF-specific IgE in the serum were presented in FIGS. 13 (a) and (b), respectively.
Skin tissue changes were examined using Hematoxylin and Eosin (H&E) staining (refer to FIG. 14) (Data are shown as mean±standard deviation (SD). ** P<0.01, * P<0.05). Additionally, changes in eosinophils and mouse epidermal thickness were measured (see FIG. 14).
The results of the analysis of T cell fractions in the skin of atopic dermatitis mouse models treated with compound 27 of the present invention are presented in FIGS. 16 and 17 (data are shown as mean±standard deviation (SD). ** P<0.01, * P<0.05).

CCC(NC)C(=O)NCc1ccc(OCc2ccc(C(F)(F)F)cc2)cc1 (racemic) [Compound 27, (R)/(S)-2-(methylamino)-N-(4-((4-trifluoromethyl)benzyl)oxy)benzyl)butanamide]
CCL22/MDC level in skin tissue ([1]; Luminex): significant decrease
IL-1β level in skin tissue ([1]; Luminex): significant decrease
IL-4 level in skin tissue ([1]; Luminex): significant decrease
MMP-12 level in skin tissue ([1]; Luminex): significant decrease
S100A9 level in skin tissue ([1]; Luminex): significant decrease
TNF-α level in skin tissue ([1]; Luminex): significant decrease
symptoms of dermatitis (SCORAD index) ([1]; topical 1% (w/v), once daily, two weeks): significant reduction
expression of inflammatory cells (H&E, skin tissue) ([1]; topical 1% (w/v)): significant decrease
serum IgE concentration ([1]; topical 1% (w/v)): decrease
serum TSLP concentration ([1]; topical 1% (w/v)): decrease
thickness of the epidermal layer ([1]; topical 1% (w/v)): significant reduction
proportion of skin-specific T cells (CD3+, CD4+, CD69+, CD103+) ([2]; FACS of mouse skin, 16 g/mL, 8 g/mL): concentration-dependent significant decrease
numbers of CD69+ T cells and CD103+ T cells ([2]; FACS of mouse skin, vs 0.1% dexamethasone): statistically significant decrease
eosinophil count in skin tissue ([2]; H&E staining, topical): concentration-dependent decrease
epidermal thickness ([2]; H&E staining, with increasing drug concentration): appeared to thin
atopic dermatitis symptoms (skin scores, FIG. 12) ([2]; […], 8 g/mL topical): improved atopic dermatitis symptoms in a concentration-dependent manner
erythema, hemorrhage, dryness, wounds, swelling and shedding (visual, SCORAD) ([2]; topical, three times a week for three weeks, compound vs 0.1% dexamethasone positive control): significant reduction
